The values below are quoted from earlier work in patent publication US20080268045A1, “SUSTAINED RELEASE METHOTREXATE FORMULATIONS AND METHODS OF USE THEREOF” (Proprius Pharmaceuticals, Inc., priority 2006, published 2008).

Structures are written as SMILES.

Take `CN(Cc1cnc2nc(N)nc(N)c2n1)c1ccc(C(=O)N[C@@H](CCC(=O)O)C(=O)O)cc1` [methotrexate]: the “Bioavailability of orally dosed methotrexate” value (higher dose strength (10-15 mg/dose)) is 30-40%. In addition, the “Bioavailability of orally administered methotrexate” value (lower dose strength) is on record as at most 60%.
